Values joined by “and” are separate entries in the source; they are usually repeats but may differ in a detail not shown here. Equal values may be shown once. ± gives the uncertainty stated by the source.
Experiment: xn = mol fraction of the nth substance listed
Settings: 101.3 kPa

CCCC[N+]1(C)CCCCC1.F[P-](F)(F)(F)(F)F + CCCC[n+]1cccc(C)c1.F[P-](F)(F)(F)(F)F + CCCC[N+]1(C)CCCC1.F[P-](F)(F)(F)(F)F
viscosity (333.15 K, x2 = 0.6, x1 = 0.16): 127 ± 4 mPa·s | viscosity (333.15 K, x2 = 0.7, x1 = 0.12): 109 ± 3 mPa·s | viscosity (333.15 K, x2 = 0.8, x1 = 0.08): 95 ± 3 mPa·s | viscosity (333.15 K, x2 = 0.9, x1 = 0.04): 84 ± 2 mPa·s | viscosity (338.15 K, x2 = 0.2, x1 = 0.32): 194 ± 8 mPa·s | viscosity (338.15 K, x2 = 0.3, x1 = 0.28): 163 ± 6 mPa·s | viscosity (338.15 K, x2 = 0.4, x1 = 0.06): 111 ± 3 mPa·s | viscosity (338.15 K, x2 = 0.4, x1 = 0.12): 121 ± 3 mPa·s | viscosity (338.15 K, x2 = 0.4, x1 = 0.18): 125 ± 3 mPa·s | viscosity (338.15 K, x2 = 0.4, x1 = 0.24): 137 ± 4 mPa·s and 138 ± 5 mPa·s | viscosity (338.15 K, x2 = 0.4, x1 = 0.3): 145 ± 4 mPa·s | viscosity (338.15 K, x2 = 0.4, x1 = 0.36): 155 ± 4 mPa·s | viscosity (338.15 K, x2 = 0.4, x1 = 0.42): 165 ± 5 mPa·s | viscosity (338.15 K, x2 = 0.4, x1 = 0.48): 176 ± 5 mPa·s | viscosity (338.15 K, x2 = 0.4, x1 = 0.54): 188 ± 5 mPa·s | viscosity (338.15 K, x2 = 0.5, x1 = 0.2): 117 ± 3 mPa·s | viscosity (338.15 K, x2 = 0.6, x1 = 0.16): 100 ± 3 mPa·s | viscosity (338.15 K, x2 = 0.7, x1 = 0.12): 87 ± 2 mPa·s | viscosity (338.15 K, x2 = 0.8, x1 = 0.08): 76 ± 2 mPa·s | viscosity (338.15 K, x2 = 0.9, x1 = 0.04): 67 ± 1 mPa·s | viscosity (343.15 K, x2 = 0.2, x1 = 0.32): 152 ± 5 mPa·s | viscosity (343.15 K, x2 = 0.3, x1 = 0.28): 129 ± 4 mPa·s | viscosity (343.15 K, x2 = 0.4, x1 = 0.06): 89 ± 2 mPa·s | viscosity (343.15 K, x2 = 0.4, x1 = 0.12): 97 ± 2 mPa·s | viscosity (343.15 K, x2 = 0.4, x1 = 0.18): 100 ± 2 mPa·s | viscosity (343.15 K, x2 = 0.4, x1 = 0.24): 109 ± 3 mPa·s | viscosity (343.15 K, x2 = 0.4, x1 = 0.3): 115 ± 3 mPa·s | viscosity (343.15 K, x2 = 0.4, x1 = 0.36): 122 ± 3 mPa·s | viscosity (343.15 K, x2 = 0.4, x1 = 0.42): 129 ± 3 mPa·s | viscosity (343.15 K, x2 = 0.4, x1 = 0.48): 137 ± 4 mPa·s | viscosity (343.15 K, x2 = 0.4, x1 = 0.54): 146 ± 4 mPa·s | viscosity (343.15 K, x2 = 0.5, x1 = 0.2): 93 ± 2 mPa·s | viscosity (343.15 K, x2 = 0.6, x1 = 0.16): 80 ± 2 mPa·s | viscosity (343.15 K, x2 = 0.7, x1 = 0.12): 70 ± 2 mPa·s | viscosity (343.15 K, x2 = 0.8, x1 = 0.08): 61 ± 1 mPa·s | viscosity (343.15 K, x2 = 0.9, x1 = 0.04): 54 ± 1 mPa·s | viscosity (348.15 K, x2 = 0.2, x1 = 0.32): 121 ± 4 mPa·s | viscosity (348.15 K, x2 = 0.3, x1 = 0.28): 103 ± 3 mPa·s | viscosity (348.15 K, x2 = 0.4, x1 = 0.06): 72 ± 2 mPa·s | viscosity (348.15 K, x2 = 0.4, x1 = 0.12): 78 ± 2 mPa·s | viscosity (348.15 K, x2 = 0.4, x1 = 0.18): 81 ± 2 mPa·s | viscosity (348.15 K, x2 = 0.4, x1 = 0.24): 87 ± 2 mPa·s and 88 ± 2 mPa·s | viscosity (348.15 K, x2 = 0.4, x1 = 0.3): 92 ± 2 mPa·s | viscosity (348.15 K, x2 = 0.4, x1 = 0.36): 97 ± 2 mPa·s | viscosity (348.15 K, x2 = 0.4, x1 = 0.42): 103 ± 3 mPa·s | viscosity (348.15 K, x2 = 0.4, x1 = 0.48): 109 ± 3 mPa·s | viscosity (348.15 K, x2 = 0.4, x1 = 0.54): 116 ± 3 mPa·s | viscosity (348.15 K, x2 = 0.5, x1 = 0.2): 75 ± 2 mPa·s | viscosity (348.15 K, x2 = 0.6, x1 = 0.16): 65 ± 1 mPa·s | viscosity (348.15 K, x2 = 0.7, x1 = 0.12): 57 ± 1 mPa·s | viscosity (348.15 K, x2 = 0.8, x1 = 0.08): 50 ± 1 mPa·s | viscosity (348.15 K, x2 = 0.9, x1 = 0.04): 45 ± 1 mPa·s | viscosity (353.15 K, x2 = 0.2, x1 = 0.32): 98 ± 2 mPa·s | viscosity (353.15 K, x2 = 0.3, x1 = 0.28): 84 ± 2 mPa·s | viscosity (353.15 K, x2 = 0.4, x1 = 0.06): 60 ± 1 mPa·s | viscosity (353.15 K, x2 = 0.4, x1 = 0.12): 64 ± 2 mPa·s | viscosity (353.15 K, x2 = 0.4, x1 = 0.18): 66 ± 2 mPa·s | viscosity (353.15 K, x2 = 0.4, x1 = 0.24): 71 ± 2 mPa·s and 72 ± 2 mPa·s | viscosity (353.15 K, x2 = 0.4, x1 = 0.3): 75 ± 2 mPa·s | viscosity (353.15 K, x2 = 0.4, x1 = 0.36): 79 ± 2 mPa·s | viscosity (353.15 K, x2 = 0.4, x1 = 0.42): 83 ± 2 mPa·s | viscosity (353.15 K, x2 = 0.4, x1 = 0.48): 88 ± 2 mPa·s | viscosity (353.15 K, x2 = 0.4, x1 = 0.54): 93 ± 2 mPa·s | viscosity (353.15 K, x2 = 0.5, x1 = 0.2): 62 ± 1 mPa·s | viscosity (353.15 K, x2 = 0.6, x1 = 0.16): 54 ± 1 mPa·s | viscosity (353.15 K, x2 = 0.7, x1 = 0.12): 47 ± 1 mPa·s | viscosity (353.15 K, x2 = 0.8, x1 = 0.08): 42 ± 1 mPa·s | viscosity (353.15 K, x2 = 0.9, x1 = 0.04): 37 ± 1 mPa·s | viscosity (358.15 K, x2 = 0.2, x1 = 0.32): 80 ± 2 mPa·s | viscosity (358.15 K, x2 = 0.3, x1 = 0.28): 69 ± 1 mPa·s | viscosity (358.15 K, x2 = 0.4, x1 = 0.06): 50 ± 1 mPa·s | viscosity (358.15 K, x2 = 0.4, x1 = 0.12): 53 ± 1 mPa·s | viscosity (358.15 K, x2 = 0.4, x1 = 0.18): 55 ± 1 mPa·s | viscosity (358.15 K, x2 = 0.4, x1 = 0.24): 59 ± 1 mPa·s | viscosity (358.15 K, x2 = 0.4, x1 = 0.3): 62 ± 1 mPa·s | viscosity (358.15 K, x2 = 0.4, x1 = 0.36): 65 ± 2 mPa·s | viscosity (358.15 K, x2 = 0.4, x1 = 0.42): 68 ± 2 mPa·s | viscosity (358.15 K, x2 = 0.4, x1 = 0.48): 71 ± 2 mPa·s | viscosity (358.15 K, x2 = 0.4, x1 = 0.54): 75 ± 2 mPa·s | viscosity (358.15 K, x2 = 0.5, x1 = 0.2): 51 ± 1 mPa·s | viscosity (358.15 K, x2 = 0.6, x1 = 0.16): 45 ± 1 mPa·s | viscosity (358.15 K, x2 = 0.7, x1 = 0.12): 39 ± 1 mPa·s | viscosity (358.15 K, x2 = 0.8, x1 = 0.08): 35 ± 1 mPa·s | viscosity (358.15 K, x2 = 0.9, x1 = 0.04): 31 ± 1 mPa·s | viscosity (363.15 K, x2 = 0.2, x1 = 0.32): 66 ± 1 mPa·s | viscosity (363.15 K, x2 = 0.3, x1 = 0.28): 57 ± 1 mPa·s | viscosity (363.15 K, x2 = 0.4, x1 = 0.06): 42 ± 1 mPa·s | viscosity (363.15 K, x2 = 0.4, x1 = 0.12): 45 ± 1 mPa·s | viscosity (363.15 K, x2 = 0.4, x1 = 0.18): 46 ± 1 mPa·s | viscosity (363.15 K, x2 = 0.4, x1 = 0.24): 49 ± 1 mPa·s | viscosity (363.15 K, x2 = 0.4, x1 = 0.3): 51 ± 1 mPa·s | viscosity (363.15 K, x2 = 0.4, x1 = 0.36): 54 ± 1 mPa·s | viscosity (363.15 K, x2 = 0.4, x1 = 0.42): 56 ± 1 mPa·s | viscosity (363.15 K, x2 = 0.4, x1 = 0.48): 59 ± 1 mPa·s | viscosity (363.15 K, x2 = 0.4, x1 = 0.54): 62 ± 1 mPa·s | viscosity (363.15 K, x2 = 0.5, x1 = 0.2): 43 ± 1 mPa·s | viscosity (363.15 K, x2 = 0.6, x1 = 0.16): 38 ± 1 mPa·s | viscosity (363.15 K, x2 = 0.7, x1 = 0.12): 33 ± 1 mPa·s | viscosity (363.15 K, x2 = 0.8, x1 = 0.08): 30 ± 1 mPa·s | viscosity (363.15 K, x2 = 0.9, x1 = 0.04): 27 ± 1 mPa·s
